From patent US20020049157A1, “Use of proteasome inhibitors for treating cancer, inflammation, autoimmune disease, graft rejection and septic shock” (priority 1998, published 2002)

Key:
Namalwa = assay: Quantitative filter elution assay of DNA fragmentation in Namalwa cells; assay type: cell-based, human; details: lactacystin 0.75-10 μM; 24-96 h
Description: A human B cell line Namalwa was stably transfected with an anti-apoptotic Bcl-2 family member Bcl-xL, and its sensitivity to the proteasome inhibitor-induced apoptosis tested by the quantitative filter elution assay (Schmitt et al., 1998, Exp. Cell Res. 240:107), which detects DNA fragmentation during apoptosis. The wild type Namalwa and transfected Namalwa cells overexpressing Bcl-xL were pulsed with ^14C-thymidine for 24 h, and then treated with different concentrations of lactacystin (0.75 μM, 1.5 μM, 3 μM, 6 μM and 10 μM). The cells were harvested at different time intervals (24-96 h), and DNA fragmentation measured.

CDK4 = assay: Immunoprecipitation kinase assay, CDK4; assay type: cell-based, human; details: PHA-activated T cells; LAC 10 μM added once at 0 h; examined at 16 h and 40 h
Description: Tonsillar T cells were activated with PHA (2 μg/ml) for a period as indicated in each graph. LAC (10 μM) was added once at 0 h. The cells were harvested at 16 h, 24 h, or 40 h as indicated. An equal amount of lysate protein ([…]) was precipitated with rabbit anti-CDK4, anti-CDK2 or anti-Cyclin E antisera (2.5 μg Ab/sample). The immune complexes were assayed for their kinase activities using histone H1 as a substrate. (A) CDK4 kinase activity. (B) CDK2 kinase activity. (C) Cyclin E-associated CDK activity. The membrane in (C) was subsequently hybridized with anti-Cyclin E (1 μg/ml) followed by ^125I-protein A for the evaluation of the protein level of Cyclin E.
This was in agreement with the critical role of CDK4 in the early […].
Lymphocytes were lysed by a lysis buffer as used in the immunoblotting (Chen et al., 1996, supra), and cleared lysates were quantitated for their protein content. For immunoprecipitation, 50 μl of rabbit antisera against CDK2, CDK4 or Cyclin E were added to the lysates equivalent to 20 or 40 μg protein depending on the experiment. After 2 h incubation at 4° C., the immune complexes were recovered by protein A-conjugated Sepharose (Pharmacia Biotech, Montreal, Quebec, Canada). […] The proteins were then transferred to PVDF membranes and the signals were detected by autoradiography.

proteasome = assay: Proteasome activity in lysates of LAC-pretreated Jurkat cells (proteinase assay, sLLVY-MCA); assay type: cell-based; details: for proteasome activity in Jurkat cells: 3 h preincubation with LAC 6 μM
Description: B. The inhibitory effect of LAC on the proteasome activity was reversible in the cells Jurkat cells were pretreated with LAC (6 μM) in culture medium for 3 h. The cells were washed and recultured at 0.5×10^6 cells/ml for 0 h, 5 h or 21 h. The cells were then harvested, washed and sonicated. The lysate protein (20 μg/sample) was assayed for its proteinase activity under a condition at which 90% of the activity was attributed to the proteasome. The samples were in duplicates. The result is expressed as relative fluorescence intensity at 440 nm.
We used Jurkat cells that have high constitutive proteasome activity to evaluate the duration of LAC's effect once the drug entered the cells. Jurkat cells were treated with LAC (6 μM) for 3 h, which was sufficiently long for the compound to enter the cells as shown above. The cells were then thoroughly washed and recuitured, and they were harvested at 0 h, 5 h and 21 h after the wash, and the proteasome activity in the cell lysates was measured using a chromogenic chymotrypsin substrate. We have previously established that the proteinase activity measured by this assay was predominantly (more than 90%) derived from the proteasome (Wang et al., 1997, Eur. J. Immunol., supra).

Tonsillar T cells = assay: DNA fragmentation (DNA laddering) in T cells; assay type: cell-based, human
Description: Tonsillar T cells (A, B, and D) and Jurkat cells (C and E) were treated with LAC (10 μM for T cells and 6 μM for Jurkat cells). LAC was added at the beginning of the culture or 40 h after T cell activation as indicated. The cells were harvested at the time points as shown. They were evaluated for their viability with trypan blue exclusion (A, B, and C), and for their mode of cell death according to DNA fragmentation (D and E).
We next employed DNA laddering to study the mode of cell death caused by LAC, and the result of this experiment also reflected the degree of cell death after different treatments. […] After 24 h of LAC treatment, the ladders became less discrete, and this probably reflected further DNA breakdown.
The assay was performed according to a protocol described by Liu et al (Liu et al., 1997, Cell. 89:175) with some modifications. Briefly, 2-6 million cells were re-suspended in 50 μl PBS followed by 300 μl lysis buffer (100 mM Tris-HCl, pH 8.0, 5 mM EDTA, 0.2 M NaCl. 0.2% w/v SDS, and 0.2 mg/ml proteinase K). After overnight incubation at 37° C., 350 μl of 3M NaCl was added to the mixture and cell debris was removed by centrifugation at 13000 g for 20 min at room temperature. DNA in the supernatant was precipitated with an equal volume of 100% ethanol. […]

[1] = system: calpain, cathepsin B, chymotrypsin, trypsin, and papain; details: cited from earlier work
C57BL/6 spleen cells = assay: Mixed lymphocyte culture (MLR), alloantigen-specific response; assay type: cell-based, mouse; details: MLR treated on day 2 with LAC 8 μM for 3 h; restimulated after 8 days
Description: The C57BL/6 spleen cells (H-2^b) were stimulated with mitomycin c-treated BALB/c spleen cells (H-2^d). On day 2 when most of the H-2^d-specific cells were activated, the mixed lymphocyte culture (MLR) was treated with lactacystin (LAC, 8 μM) for 3 h. After wash, the cells were put back in culture for additional 8 days, and then stimulated with either fresh BALB/c or C3H (H-2^k) spleen cells. […] The difference is more pronounced in day three of the culture.
It is therefore an embodiment of this invention to use proteasome inhibitors, particularly lactacystin in transplantation and autoimmune diseases where certain undesirable activated T cells can be repressed or eliminated and the rest of the T cell population is generally unaffected by such inhibitors.

Compound: CC(=O)N[C@@H](CSC(=O)[C@]1([C@@H](O)C(C)C)NC(=O)[C@H](C)[C@@H]1O)C(=O)O [LAC, lactacystin]
- DNA fragmentation in Bcl-xL transfected vs wild type Namalwa cells (Namalwa): demonstrably less DNA fragmentation
- CDK4 kinase activity (CDK4): did not affect the CDK4 activity
- active duration within the cell and in the culture media (proteasome): about 16 h
- proteasome activity in Jurkat cells (proteasome; 0 h after wash): almost completely inhibited
- proteasome activity in Jurkat cells (proteasome; 5 h after wash): still significantly inhibited
- proteasome activity in Jurkat cells (proteasome; 21 h after wash): returned to a near-normal level
- time in which LAC loses its activity in the cells (proteasome; Jurkat cells after 3 h LAC 6 μM and wash): ≤ 21 h
- DNA breakdown (DNA laddering) (Tonsillar T cells; activated T cells (40 h post PHA), LAC for additional 9 h): clear DNA ladders
- DNA breakdown (DNA laddering) (Tonsillar T cells; resting T cells, 10 μM LAC, 24 h): no apparent DNA breakdown
- effect on other proteases [1]: does not affect
- response to restimulation with BALB/c cells (C57BL/6 spleen cells): failed to respond to the BALB/c cells
- response to restimulation with third party C3H cells (C57BL/6 spleen cells): respond well to third party C3H
